Reference: ChEMBL document CHEMBL4840324, “Bioassay-Guided Isolation of an Abetiane-Type Diterpenoid from Prunella vulgaris That Protects against Concanavalin A-Induced Autoimmune Hepatitis” (J Nat Prod, 2021)
Activity calls are given as the source filed them. The rule behind the calls is not given here.

Legend:
PBMC [1] = assay: Immunosuppressive activity against anti-CD3/anti-CD28 stimulated human PBMCs assessed as reduction of IL-10 secretion at 0.625 to 2.5 uM; type: functional, tissue-based; conditions: dose 0.625-2.5 µM
Splenocyte [2] = assay: Inhibition of ConA-stimulated IFNgamma production in C57BL/6J mouse splenocytes at 0.156 to 1.25 uM; type: functional, cell-based; conditions: dose 0.156-1.25 µM
Mus musculus [3] = assay: Hepatoprotective activity against ConA-induced hepatitis in C57BL/6J mouse assessed as suppression of CD3+ T cells infiltration expression at 10 mg/kg, ip administered for 2 days by TUNEL staining based assay; type: functional, organism-based; conditions: time 2.0 day
Splenocyte [4] = assay: Immunosuppressive activity in C57BL/6J mouse splenocytes assessed as inhibition of anti-CD3/anti-CD28 induced T-cell proliferation at 0.625 uM for 72 hrs by CellTrace Violet staining based flow cytometric analysis (reference value: 78.4 %); type: functional; set-up: scale not given: the % may be the effect or the level left
Splenocyte [5] = assay: Immunosuppressive activity against anti-CD3/anti-CD28 stimulated C57BL/6J mouse splenocytes assessed as reduction of IL-4 secretion at 0.625 to 2.5 uM; type: functional, cell-based; conditions: dose 0.625-2.5 µM
Mus musculus [6] = assay: Hepatoprotective activity against ConA-induced hepatitis in C57BL/6J mouse assessed as suppression of AST level at 10 mg/kg, ip administered for 3 days by automatic analyzer; type: functional, organism-based; conditions: time 3.0 day
Mus musculus [7] = assay: Hepatoprotective activity against ConA-induced hepatitis in C57BL/6J mouse assessed as suppression of ALT level at 10 mg/kg, ip administered for 3 days by automatic analyzer; type: functional, organism-based; conditions: time 3.0 day
PBMC [8] = assay: Immunosuppressive activity against anti-CD3/anti-CD28 stimulated human PBMCs assessed as reduction of TNFalpha secretion at 0.625 to 2.5 uM; type: functional, tissue-based; conditions: dose 0.625-2.5 µM
Splenocyte [9] = assay: Immunosuppressive activity in C57BL/6J mouse splenocytes assessed as inhibition of ConA-induced splenocytes proliferation at 0.156 uM measured after 72 hrs by CellTrace Violet staining based flow cytometric analysis (reference value: 63.9 %); type: functional; set-up: scale not given: the % may be the effect or the level left
Mus musculus [10] = assay: Hepatoprotective activity against ConA-induced hepatitis in C57BL/6J mouse assessed as effect on BCL2 expression at 10 mg/kg, ip administered for 2 days by TUNEL staining based assay; type: functional, organism-based; conditions: time 2.0 day
Splenocyte [11] = assay: Immunosuppressive activity in C57BL/6J mouse splenocytes assessed as inhibition of anti-CD3/anti-CD28 induced T-cell proliferation at 1.25 uM for 72 hrs by CellTrace Violet staining based flow cytometric analysis (reference value: 78.4 %); type: functional; set-up: scale not given: the % may be the effect or the level left
Mus musculus [12] = assay: Hepatoprotective activity against ConA-induced hepatitis in C57BL/6J mouse assessed as suppression of LDH level at 10 mg/kg, ip administered for 3 days by automatic analyzer; type: functional, organism-based; conditions: time 3.0 day
[13] = Immunosuppressive activity in human PBMCs assessed as inhibition of anti-CD3/anti-CD28 induced T-cell proliferation at 1.25 uM for 72 hrs by CellTrace Violet staining based flow cytometric analysis (reference value: 63.3 %); type: functional, PBMC; set-up: scale not given: the % may be the effect or the level left
Splenocyte [14] = assay: Immunosuppressive activity in C57BL/6J mouse splenocytes assessed as inhibition of ConA-induced splenocytes proliferation at 1.25 uM measured after 72 hrs by CellTrace Violet staining based flow cytometric analysis (reference value: 63.9 %); type: functional; set-up: scale not given: the % may be the effect or the level left
Mus musculus [15] = assay: Hepatoprotective activity against ConA-induced hepatitis in C57BL/6J mouse assessed as effect on cleaved caspase 3 expression at 10 mg/kg, ip administered for 2 days by TUNEL staining based assay; type: functional, organism-based; conditions: time 2.0 day
Splenocyte [16] = assay: Immunosuppressive activity in C57BL/6J mouse splenocytes assessed as inhibition of ConA-induced splenocytes proliferation at 0.625 uM measured after 72 hrs by CellTrace Violet staining based flow cytometric analysis (reference value: 63.9 %); type: functional; set-up: scale not given: the % may be the effect or the level left
[17] = Immunosuppressive activity in human PBMCs assessed as inhibition of anti-CD3/anti-CD28 induced T-cell proliferation at 0.3125 uM for 72 hrs by CellTrace Violet staining based flow cytometric analysis (reference value: 63.3 %); type: functional, PBMC; set-up: scale not given: the % may be the effect or the level left
Splenocyte [18] = assay: Inhibition of ConA-stimulated IL-6 production in C57BL/6J mouse splenocytes at 0.156 to 1.25 uM; type: functional, cell-based; conditions: dose 0.156-1.25 µM
[19] = Immunosuppressive activity in human PBMCs assessed as inhibition of anti-CD3/anti-CD28 induced T-cell proliferation at 2.5 uM for 72 hrs by CellTrace Violet staining based flow cytometric analysis (reference value: 63.3 %); type: functional, PBMC; set-up: scale not given: the % may be the effect or the level left
[20] = Hepatotoxicity in C57BL/6J mouse at 10 mg/kg, ip administered for 3 days by hematoxylin and eosin staining based immunohistochemical analysis; type: toxicity, organism-based; conditions: in vivo, 72 h, time 3 day
Splenocyte [21] = assay: Inhibition of ConA-stimulated IL-2 production in C57BL/6J mouse splenocytes at 0.156 to 1.25 uM; type: functional, cell-based; conditions: dose 0.156-1.25 µM
Mus musculus [22] = assay: Hepatoprotective activity against ConA-induced hepatitis in C57BL/6J mouse assessed as effect on FAS expression at 10 mg/kg, ip administered for 2 days by TUNEL staining based assay; type: functional, organism-based; conditions: time 2.0 day
Splenocyte [23] = assay: Immunosuppressive activity against anti-CD3/anti-CD28 stimulated C57BL/6J mouse splenocytes assessed as reduction of IL-17 secretion at 0.625 to 2.5 uM; type: functional, cell-based; conditions: dose 0.625-2.5 µM
Splenocyte [24] = assay: Immunosuppressive activity in C57BL/6J mouse splenocytes assessed as inhibition of anti-CD3/anti-CD28 induced T-cell proliferation at 0.3125 uM for 72 hrs by CellTrace Violet staining based flow cytometric analysis (reference value: 78.4 %); type: functional; set-up: scale not given: the % may be the effect or the level left
Splenocyte [25] = assay: Immunosuppressive activity in C57BL/6J mouse splenocytes assessed as inhibition of anti-CD3/anti-CD28 induced T-cell proliferation at 2.5 uM for 72 hrs by CellTrace Violet staining based flow cytometric analysis (reference value: 78.4 %); type: functional; set-up: scale not given: the % may be the effect or the level left
Splenocyte [26] = assay: Immunosuppressive activity against anti-CD3/anti-CD28 stimulated C57BL/6J mouse splenocytes assessed as reduction of IL-6 secretion at 0.625 to 2.5 uM; type: functional, cell-based; conditions: dose 0.625-2.5 µM
PBMC [27] = assay: Immunosuppressive activity against anti-CD3/anti-CD28 stimulated human PBMCs assessed as reduction of IL-6 secretion at 0.625 to 2.5 uM; type: functional, tissue-based; conditions: dose 0.625-2.5 µM
Splenocyte [28] = assay: Immunosuppressive activity against anti-CD3/anti-CD28 stimulated C57BL/6J mouse splenocytes assessed as reduction of IL-10 secretion at 0.625 to 2.5 uM; type: functional, cell-based; conditions: dose 0.625-2.5 µM
Splenocyte [29] = assay: Inhibition of ConA-stimulated TNFalpha production in C57BL/6J mouse splenocytes at 0.156 to 1.25 uM; type: functional, cell-based; conditions: dose 0.156-1.25 µM
Splenocyte [30] = assay: Immunosuppressive activity against anti-CD3/anti-CD28 stimulated C57BL/6J mouse splenocytes assessed as reduction of TNFalpha secretion at 0.625 to 2.5 uM; type: functional, cell-based; conditions: dose 0.625-2.5 µM
Splenocyte [31] = assay: Immunosuppressive activity against anti-CD3/anti-CD28 stimulated C57BL/6J mouse splenocytes assessed as reduction of IFN-gamma secretion at 0.625 to 2.5 uM; type: functional, cell-based; conditions: dose 0.625-2.5 µM
Splenocyte [32] = assay: Immunosuppressive activity in C57BL/6J mouse splenocytes assessed as inhibition of ConA-induced splenocytes proliferation at 0.3125 uM measured after 72 hrs by CellTrace Violet staining based flow cytometric analysis (reference value: 63.9 %); type: functional; set-up: scale not given: the % may be the effect or the level left
PBMC [33] = assay: Immunosuppressive activity against anti-CD3/anti-CD28 stimulated human PBMCs assessed as reduction of IFN-gamma secretion at 0.625 to 2.5 uM; type: functional, tissue-based; conditions: dose 0.625-2.5 µM
[34] = Immunosuppressive activity in human PBMCs assessed as inhibition of anti-CD3/anti-CD28 induced T-cell proliferation at 0.625 uM for 72 hrs by CellTrace Violet staining based flow cytometric analysis (reference value: 63.3 %); type: functional, PBMC; set-up: scale not given: the % may be the effect or the level left

## COC1=C(C(C)C)C(=O)[C@]23O[C@@]2(C1=O)[C@@]1(C)CC[C@H](O)C(C)(C)[C@@H]1CC3=O
PBMC [1]
  Activity: Active
Splenocyte [2]
  inhibition: Active
Mus musculus [3]
  Activity: Active
Splenocyte [4]
  Activity: 68.8%
Splenocyte [5]
  Activity: Active
Mus musculus [6]
  Activity: Active
Mus musculus [7]
  Activity: Active
PBMC [8]
  Activity: Active
Splenocyte [9]
  Activity: 51.1%
Mus musculus [10]
  Activity: inactive
Splenocyte [11]
  Activity: 7.39%
Mus musculus [12]
  Activity: Active
[13]
  Activity: 24.9%
Splenocyte [14]
  Activity: 10.8%
Mus musculus [15]
  Activity: inactive
Splenocyte [16]
  Activity: 29.9%
[17]
  Activity: 61.3%
Splenocyte [18]
  inhibition: Active
[19]
  Activity: 8.24%
[20]
  Activity: Non-Toxic
Splenocyte [21]
  inhibition: Active
Mus musculus [22]
  Activity: inactive
Splenocyte [23]
  Activity: Active
Splenocyte [24]
  Activity: 70.2%
Splenocyte [25]
  Activity: 5.48%
Splenocyte [26]
  Activity: Active
PBMC [27]
  Activity: Active
Splenocyte [28]
  Activity: Active
Splenocyte [29]
  inhibition: Active
Splenocyte [30]
  Activity: Active
Splenocyte [31]
  Activity: Active
Splenocyte [32]
  Activity: 42.2%
PBMC [33]
  Activity: Active
[34]
  Activity: 56.4%
